We go through 3 molecules from US8158820B2, “Compounds” (AstraZeneca AB, priority 2003, dated 2012).

The experiment addresses T1, CRTh2 (Homo sapiens, UniProt Q9Y5Y4).
T1 construct: expressed in transfected cells; host or cells: HEK cells (stably transfected, geneticin selection; membranes prepared)
T1 sequence (Q9Y5Y4 1-395): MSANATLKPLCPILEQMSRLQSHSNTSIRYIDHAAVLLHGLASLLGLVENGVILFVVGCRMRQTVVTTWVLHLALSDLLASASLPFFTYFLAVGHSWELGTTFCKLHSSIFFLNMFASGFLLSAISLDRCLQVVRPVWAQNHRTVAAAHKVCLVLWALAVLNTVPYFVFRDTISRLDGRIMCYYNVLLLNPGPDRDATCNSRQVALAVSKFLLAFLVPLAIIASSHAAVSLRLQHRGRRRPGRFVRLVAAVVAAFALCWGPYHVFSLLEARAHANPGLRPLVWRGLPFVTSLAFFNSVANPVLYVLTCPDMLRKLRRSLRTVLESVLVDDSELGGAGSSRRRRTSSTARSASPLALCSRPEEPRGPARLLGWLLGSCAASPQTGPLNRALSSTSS
Description: Ligand Binding Assay ([3H]PGD2, SPA beads, HEK cell membranes). Conditions: [3H]PGD2 binding to membranes of HEK cells expressing rhCRTh2/Gα16. On the procedure: [^3H]PGD2 was purchased from Perkin Elmer Life Sciences with a specific activity of 100-210 Ci/mmol. All other chemicals were of analytical grade.
HEK cells expressing rhCRTh2/Gα16 were routinely maintained in DMEM containing 10% Foetal Bovine Serum (HyClone), 1 mg/ml geneticin, 2 mM L-glutamine and 1% non-essential amino acids. For the preparation of membranes, the adherent transfected HEKcells were grown to confluence in two layer tissue culture factories (Fisher, catalogue number TKT-170-070E). Maximal levels of receptor expression were induced by addition of […] sodium butyrate for the last 18 hours of culture. The adherent cells were washed once with phosphate buffered saline (PBS, 50 ml per cell factory) and detached by the addition of 50 ml per cell factory of ice-cold membrane homogenisation buffer [20 mM HEPES (pH 7.4), 0.1 mM dithiothreitol, 1 mM EDTA, 0.1 mM phenyl methyl sulphonyl fluoride and 100 μg/ml bacitracin]. […] The final pellet was re-suspended in 4 ml of membrane homogenisation buffer per cell factory used and the protein content determined. […]
All assays were performed in Corning clear bottomed, white 96-well NBS plates (Fisher). […] (The optimum coating concentrations were determined for each batch of membranes) The beads were pelleted by centrifugation (800×g for 7 minutes at 4° C.), washed once with assay buffer (50 mM HEPES pH 7.4 containing 5 mM magnesium chloride) and finally re-suspended in assay buffer at a bead concentration of 10 mg/ml.
Each assay contained 20 μl of 6.25 nM [^3H]PGD2, 20 μl membrane saturated SPA beads both in assay buffer and 10 μl of compound solution or 13,14-dihydro-15-keto prostaglandin D2 (DK-PGD2, for determination of non-specific binding, Cayman chemical company). […] The assay plate was incubated at room temperature for 2 hours and counted on a Wallac Microbeta liquid scintillation counter (1 minute per well).

Broadly, the IC50 is the concentration that gives 50% inhibition. Read a low IC50 as inhibition by little substance.

Molecule `CS(=O)(=O)c1ccc(-c2cc(Cl)ccc2OCC(=O)O)cc1` [Example 9, {[5-Chloro-4′-(methylsulfonyl)biphenyl-2-yl]oxy}acetic acid] had an IC50 of 39.8 nM.
`CN(c1ncc(-c2cc(Cl)ccc2OCC(=O)O)cn1)S(C)(=O)=O` [Example 25, (4-Chloro-2-{2-[methyl(methylsulfonyl)amino]pyrimidin-5-yl}phenoxy)acetic acid]: the IC50 was 10 nM.
The value for `CNS(=O)(=O)c1ccc(-c2cc(C(F)(F)F)ccc2OCC(=O)O)cc1` [Example 133, [[4′-[(Methylamino)sulfonyl]-5-(trifluoromethyl)[1,1′-biphenyl]-2-yl]oxy]-acetic acid] was 6.31 nM.
